In one assay the test system is PDE4. Briefly: PDE4 activity in homogenate of guinea pig lungs or hearts (PDE4L). It counts as biochemical. To be noted: guinea pig lung or heart homogenate; read-out: IC50 for PDE4 inhibition (PDE4L value). How it is done: (§1) Activities of PDE1∼5 in the homogenate of guinea pig lungs or hearts were measured by a two-step procedure according to the previous method, using cAMP with [^3 H]-cAMP or cGMP with [^3 H]-cGMP as substrates. The enzyme preparation (25 μL) was incubated for 30 min at 37°C in a total assay volume of 100 μL containing 50 mM Tris-HCl (pH 7.4), 3 mM MgCl2, 1 mM dithiothreitol, 0.05% BSA, and 1 μM cAMP with 0.2 μCi [^3 H]-cAMP as a substrate alone or in the presence of 0.1 unit calmodulin with 10 μM CaCl2 or 5 μM cGMP, and 1 μM cGMP with 0.2 μCi [^3 H]-cGMP as another substrate alone or in the presence of 0.1 unit calmodulin with 10 μM CaCl2. […] The reagents and homogenate were mixed on ice, and the reaction was initiated by transferring the mixture to a water bath at 37°C. Following a 30 min incubation, the reaction was stopped by transferring the reaction vessel to a bath of boiling water for 3 min. After cooling on ice, 20 μL of a 1 mg/mL solution of Crotalus atrox snake venom was added to the reaction mixture, and the mixture was incubated at 37°C for 10 min. Unreacted [^3 H]-cAMP or [^3 H]-cGMP was removed by the addition of 500 μL of a 1-in-1 Tris-HCl (40 mM) buffer suspension of Dowex resin (1 × 2-400) with incubation on ice for 30 min. Each tube was then centrifuged at 3700 g for 2 min, and 100 μL of the supernatant was removed for liquid scintillation counting.

Assay [1] deals with high-affinity rolipram-binding sites (HARBSs), PDE4H. Briefly: Displacement of [3H]-rolipram from high-affinity rolipram-binding sites of brain cell membranes (PDE4H). More on the design: species or system guinea pig. How it is done: When the above-mentioned guinea pigs were sacrificed, the whole brains were removed and homogenized with a glass/Teflon homogenizer (Glas-Col, Terre Haute, IN, USA) in 10 volumes of cold medium (pH 6.5) containing 20 mM Bis-Tris, 2 mM benzamidine, 2 mM EDTA, 50 mM sodium chloride, 0.1 mM PMSF, and 1 mM dithiothreitol. At 4°C, the homogenate was centrifuged at 170 g for 5 min to remove connective tissues and blood vessels. The suspended homogenate was then recentrifuged at 40,000 g for 30 min to separate the cytosolic and particulate portions. The particulate portion was resuspended in a suspension at a concentration of 400 mg/mL (wet weight/volume), after washing three times with homogenizing buffer. The particulate portion mainly consisted of cell membranes. […] Briefly, the reaction buffer consisted of 50 mM Tris-HCl and 5 mM MgCl2 (pH 7.5). […] After 1 h, the reaction was terminated by moving the reaction vessel into crushed ice. Then the reaction mixture was transferred onto Whatman GF/B glass-fiber filters, which were soaked in a 0.3% polyethyleneimine solution in a mini-funnel.
(Displacement assays read how much labelled ligand stays bound in the presence of the test substance.)

A further assay concerns PDE3. Briefly: PDE3 activity in homogenate of guinea pig lungs or hearts. It is filed as biochemical. To be noted: guinea pig lung or heart homogenate; read-out: IC50 for PDE3 inhibition. Here is the method: as §1
For another assay, the system named is cytokines in BALF. Briefly: Cytokine levels in BALF of sensitized and challenged mice (flow cytometric CBA). It is filed as in vivo, BABL/c mice. How it is done: According to the schedule (Figure 2), ten female BABL/c mice in each group were sensitized by an intraperitoneal (i.p.) injection of 20 μg of ovalbumin emulsified in 2.25 mg of an aluminum hydroxide gel, prepared from aluminum sulfate hexadecahydrate, in a total volume of 100 μL on days 0 and 14. Mice were challenged via the airway using 1% ovalbumin in saline for 30 min on days 28, 29, and 30 by ultrasonic nebulization. After the last ovalbumin challenge, AHR was assessed on day 32 (48 h after 1% ovalbumin provocation) in each group. Each group of mice was orally (p.o.) administered the vehicle (control), 30∼100 μmol/kg of hesperidin or 10∼100 μmol/kg of hesperidin-3′-O-methylether 2 h before and 6 and 24 h after ovalbumin provocation. For comparison, sham-treated mice were challenged with saline instead of 1% ovalbumin (nonchallenged). The vehicle, a mixture of DMSO : PEG 400 : saline (1 : 1 : 8, v/v), hesperidin, or hesperidin-3′-O-methylether was administered (p.o.) at a volume of 0.01 mL/g of body weight. AHR was assessed by barometric plethysmography using a whole-body plethysmograph (WBP) and analyzed using software of Life Science Suite P3 Analysis Modules (Gould, LDS Test and Measurement LLC, Valley View, OH, USA) in unrestrained animals. Mice were placed into the main chamber of the WBP, and the baseline enhanced pause (P enh) value was determined. Then mice were first nebulized with phosphate-buffered saline (PBS), and subsequently with increasing doses (6.25∼50 mg/mL) of methacholine for 3 min for each nebulization, followed by readings of breathing parameters for 3 min after each nebulization to determine P enh values. Twenty-four hours after P enh determination, these mice were anesthetized with pentobarbital (50 mg/kg, i.p.), and the lungs were lavaged via a tracheal tube with PBS (1 × 1.0 mL, 37°C). After lavage, blood was collected from the jugular vein and allowed to sit so that it would coagulate. The collected bronchoalveolar lavage fluid (BALF) and coagulated blood were respectively centrifuged at 630 g for 7 min and at 3700 g for 10 min at 4°C. After centrifugation, the BALF and serum supernatants were stored at −20°C until determinations of cytokines, including interleukin (IL)-2, IL-4, IL-5, tumor necrosis factor (TNF)-α, and interferon (IFN)-γ by flow cytometric methods using mouse Th1/Th2 cytokine CBA kits, and of a total immunoglobulin (Ig)E and IgG2a using ELISA kits (Pharmingen, San Diego, CA, USA) according to the respective recommendations of the manufacturers. Ovalbumin-specific IgE was measured as described previously. Wells were coated with 100 μL of ovalbumin (20 μg/mL) instead of the capture antibody. Levels are expressed in arbitrary units, where 1 arbitrary unit equals the optical density of the sample divided by the optical density of unchallenged mouse serum or BALF (standard). The BALF pellet was resuspended in ACK lysing buffer (1.658 g NH4Cl, 0.2 g KHCO3, and […] EDTA in 200 mL of water) to lyse the residual erythrocytes in each sample. The number of inflammatory cells was counted using a hemocytometer (Hausser Scientific, Horsham, PA, USA). Cytospin slides were stained and cell differentials were determined in a blinded fashion by counting at least 100 cells under light microscopy. All undetectable data (<1 pg/mL) of cytokines were taken as 0.5 pg/mL.

pEC50, pIC50: −log10 of the molar value.

As usually defined, the pIC50 is −log10 of the IC50, conventionally taken in molar units. As usually defined, the pEC50 is the negative decadic logarithm of the EC50, by convention in mol/L. Turning to `COc1ccc([C@@H]2CC(=O)c3c(O)cc(O[C@@H]4O[C@H](CO[C@@H]5O[C@@H](C)[C@H](O)[C@@H](O)[C@H]5O)[C@@H](O)[C@H](O)[C@H]4O)cc3O2)cc1O` [hesperidin], the negative-log IC50 (pIC50) in the assay with PDE4 was below 4.00. The negative-log EC50 (pEC50) in assay [1] (2 nM [3H]-rolipram, guinea pig brain cell membranes, read-out: EC50 (PDE4H) for displacing [3H]-rolipram binding) was below 3.52. For the same molecule, the “displacement of 2 nM [3H]-rolipram binding on HARBSs” value in assay [1] (300 μM, guinea pig brain cell membranes) is 27.0 ± 1.4%. Besides, the PDE4H/PDE4L ratio in assay [1] (therapeutic ratio, EC50 (PDE4H) / IC50 (PDE4L)) is on record as 3. For the same molecule, the pIC50 with PDE3 was below 4.00. In the assay on cytokines in BALF (100 μmol/kg p.o.), the “increase in level of TNF-α in BALF” value is reported as “significantly suppressed” and the “level of IFN-γ in BALF compared to the control” value is on record as “significantly enhanced”. The “increases in levels of IL-2, IL-4, IL-5 in BALF” value with cytokines in BALF (30∼100 μmol/kg p.o.) is given as “significantly suppressed”.

The values above are taken from article PMC3469158, “Hesperidin-3′-O-Methylether Is More Potent than Hesperidin in Phosphodiesterase Inhibition and Suppression of Ovalbumin-Induced Airway Hyperresponsiveness” (Evidence-based Complementary and Alternative Medicine : eCAM, 2012).
